Measured values reported in patent publication US20080085884A1, “Melanin Concentrating Hormone Receptor-1 Antagonist Pyridinones” (Pfizer Inc, priority 2006, published 2008).

target: T1, human MCHR1 (Homo sapiens, UniProt Q99705); test: Cyclic AMP assay (MCHR-1 functional antagonism); assay type: cell-based; details: CHO cells stably expressing human MCHR1; cAMP accumulation with 25 uM forskolin and 0.2 nM MCH, 90 min; Ki from IC50 by Cheng-Prusoff; read-out: MCHR-1 functional Ki
T1 construct: host or cells: CHO
T1 sequence (Q99705 whole entry): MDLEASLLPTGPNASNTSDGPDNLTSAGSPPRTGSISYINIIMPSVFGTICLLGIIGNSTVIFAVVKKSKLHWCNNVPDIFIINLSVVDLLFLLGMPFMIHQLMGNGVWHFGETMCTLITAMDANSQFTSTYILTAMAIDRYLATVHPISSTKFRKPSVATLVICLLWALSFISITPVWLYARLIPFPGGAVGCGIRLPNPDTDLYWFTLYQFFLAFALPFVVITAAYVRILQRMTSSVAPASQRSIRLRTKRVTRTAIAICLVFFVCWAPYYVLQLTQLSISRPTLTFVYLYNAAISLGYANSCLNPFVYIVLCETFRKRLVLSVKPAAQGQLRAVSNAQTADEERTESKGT
Method: CHO cell lines stably expressing the human MCHR1 (Euroscreen, Brussels, Belgium) were maintained in DMEM containing Glutamax (Invitrogen, Carlsbad, Calif.), 10% FBS, 400 ug/ml Geneticin.
Cyclic AMP assays. CHO cells stably expressing the human MCHR1 receptors were collected and resuspended at a density of 4.0×10^6 cells/ml in F12 (Hams) media and seeded (20,000 cells per well) into 384-well, solid white Greiner assay plates. […] Cells were incubated at 37° C./5% CO2 for 90 minutes and cAMP accumulation subsequently determined by DiscoveRx Hithunter c-AMP II Assay kit (GE Healthcare, Buckinghamshire, UK) in accordance with manufactures instructions. Luminescence was measured on a LEADseaker imaging system (GE Healthcare, Buckinghamshire, UK). IC50 values were calculated from dose-response data fit using an in-house computer graphics and statistics program.

Ki	Compound
15.3 nM	CC1(N)CCN(c2ccc(-n3ccc(OCc4ccccc4)cc3=O)cn2)C1 (single isomer, unassigned) [Example 17a, 6′-(3-Amino-3-methylpyrrolidin-1-yl)-4-(benzyloxy)-2H-1,3′-bipyridin-2-one]
78 nM	O=c1cc(OCc2ccccc2)ccn1-c1ccc(N2CCCNCC2)nc1 [Example 216]
539 nM	CCC(=O)N1CCN(c2ccc(-n3ccc(OCc4ccc(F)cc4)cc3=O)cn2)CC1 [Example 168]
12.1 nM	O=c1cc(OCc2ccccc2)ccn1-c1ccc(N2CCC(N3CCCC3)C2)nc1 (stereo not shown) [Example 63]
10.6 nM	CN(C(=O)OC(C)(C)C)[C@H]1CCN(c2ccc(-n3ccc(OCc4ccc(Cl)cc4)cc3=O)cn2)C1 [Example 198]
498 nM	O=c1cc(OCc2cccc(Cl)c2Cl)ccn1-c1ccc(N2CC[C@@H](O)C2)nc1 [Example 205]
5.43 nM	O=c1cc(OCc2ccc(Cl)cc2)ccn1-c1ccc(N2C[C@H]3CNC[C@H]3C2)nc1 [Example 107]
330 nM	O=c1cc(OCc2ccc(Cl)c(Cl)c2)ccn1-c1ccc(N2CC[C@@H](O)C2)nc1 [Example 204]
197 nM	CCC1CN(c2ccc(-n3ccc(OCc4ccccc4)cc3=O)cn2)CCN1 (stereo not shown) [Example 223]
364 nM	CCOC(=O)N[C@@H]1CCN(c2ccc(-n3ccc(OCc4ccccc4)cc3=O)cn2)C1 [Example 43]
29.8 nM	COC(=O)N[C@H]1CCN(c2ccc(-n3ccc(OCc4ccc(F)cc4)cc3=O)cn2)C1 [Example 186]
26.8 nM	CCN(C(C)=O)[C@@H]1CCN(c2ccc(-n3ccc(OCc4ccccc4)cc3=O)cn2)C1 [Example 160]
238 nM	NC1CN(c2ccc(-n3ccc(OCc4ccccc4)cc3=O)cn2)C1 [Example 232]
13.1 nM	CC(=O)N(C)[C@H]1CCN(c2ccc(-n3ccc(OCc4ccc(Cl)cc4)cc3=O)cn2)C1 [Example 173]
10.9 nM	CO[C@@H]1CCN(c2ccc(-n3ccc(OCc4ccccc4)cc3=O)cn2)C1 [Example 235]
42.8 nM	O=c1cc(OCc2ccc(Cl)cc2)ccn1-c1ccc(N2CC[C@@H](O)C2)nc1 [Example 10, 4-[(4-Chlorobenzyl)oxy]-6′-[(3R)-3-hydroxypyrrolidin-1-yl]-2H-1,3′-bipyridin-2-one]
30.9 nM	CC(=O)N[C@H]1CCN(c2ccc(-n3ccc(OCc4ccccc4)cc3=O)cn2)C1 [Example 162]
6.51 nM	CC(C)N1C[C@H]2CN(c3ccc(-n4ccc(OCc5ccc(F)cc5)cc4=O)cn3)C[C@H]2C1 [Example 207]
163 nM	CN1CCN(c2ccc(-n3ccc(OCc4ccccc4)cc3=O)cn2)CC1 [Example 6, 4-(Benzyloxy)-6′-(4-methylpiperazin-1-yl)-2H-1,3′-bipyridin-2-one]
29.2 nM	CC(=O)N(C)C1CCN(c2ccc(-n3ccc(OCc4ccccc4)cc3=O)cn2)CC1 [Example 165]
1140 nM	O=c1cc(OCc2ccc(F)cc2)ccn1-c1ccc(N2CCC[C@H](O)C2)nc1 [Example 88]
8.45 nM	O=c1cc(OCc2ccccc2)ccn1-c1ccc(N2CCC3(CCNC3)C2)nc1 (stereo not shown) [Example 219]
22.2 nM	COC(=O)N(C)[C@H]1CCN(c2ccc(-n3ccc(OCc4ccc(F)cc4)cc3=O)cn2)C1 [Example 180]
74.6 nM	CCC1CN(c2ccc(-n3ccc(OCc4ccccc4)cc3=O)cn2)CCN1 (stereo not shown) [Example 72]
752 nM	O=c1cc(OCc2ccccc2)ccn1-c1ccc(N2C[C@H]3C[C@@H]2CN3)nc1 [Example 231]
